The test system of one data set is NGF dimer. Briefly: NGF dimer stability by non-reducing gel electrophoresis. More on the design: species or system mouse. The protocol: For conformation and dimer integrity studies, 0.1 nM ^125 I-NGF was incubated in the presence or absence of Zn^2+ in HKR buffer for 2 hours at 4° C. in a total volume of 0.1 ml. For crosslinking NGF […], 0.4 mM BS^3 was added to the mixture and incubated for 30 minutes at 25° C. The reaction was quenched with reducing SDS PAGE sample buffer, electrophoresed using a linear 15% acrylamide gel and autoradiographed. To assess the dimeric nature of NGF in the presence of Zn^2+, ^125 I-NGF was electrophoresed in a non-reducing SDS PAGE system as described, autoradiographed, and the labelled proteins excised from the gels and counted. For CD studies, NGF (50 μg/ml) was dissolved in 50 mM Tris-HCl buffer and spectra recorded using a computer controlled Jasco J-600 spectropolarimeter. Samples were acquired in the absence or presence of Zn^2+ (100 μM) at 22° C. in a 2 mm quartz cell averaged over eight scans. Modification of His residues by DEPC was carried out as previously described, where the molar excess of DEPC added and the extent of reaction was determined by evaluating the loss of binding activity of the modified product.

Another data set has as its system T1, TrkA.
T1 construct: Receptor cross-linking studies were performed on PC12 rat pheochromocytoma cells; endogenous in cells; host or cells: PC12 rat pheochromocytoma cells (ATCC CRL 1721)
Briefly: Binding of 125I-NGF to TrkA on PC12 cells (p75NTR blocked with BDNF). The conditions noted are these: 100 μM; in presence of 40 nM BDNF; ± SEM; 120 min. Further details: species or system rat. The protocol: PC12 cells were grown in RPMI with 10% heat inactivated donor horse serum and 5% fetal calf serum. […] The tubes were incubated for 2 hr at 4° C. and 100 μl aliquots (providing triplicate data points for each sample) were transferred to 400 μl microcentrifuges containing 200 μl of 10% glycerol in HKR. Tubes were centrifuged for 2 minutes at 5,000 rpm, the tip containing the cell pellet cut off and radioactivity bound to the cells was determined.

Another data set has as its system PC12 cells. Nature of the data set: Toxicity to PC12 cells. The format is cell-based, rat.
Data set [1] relates to kindling-induced seizures. The conditions noted are these: kindling animal model of epilepsy (Rashid et al. 1995); cited from earlier work.
In a further data set the test system is NT-3. As to conditions: Rashid et al. 1995; cited from earlier work.
Data set [2] deals with dorsal root ganglion (DRG) neurons. Nature of the data set: NGF-dependent neurite growth of ED8 chick DRG neurons (FIG. 6, Terasaki plates). The format is cell-based. The procedure: FIG. 6 is a graph showing the ability of R11 to inhibit the activity of NGF in vitro using a biological assay system. […] Dissociated cells enriched for sensory neurons were prepared from embryonic day 8 (ED8) chick dorsal root ganglion (DRG) as described (Sutter et al., J. Biol. Chem. 254: 5972-5982 (1979)). Neurons were seed into wells of Terasaki plates treated sequentially with poly-D-lysine and laminin at a density of 800-1000 cells/well in "synthetic" Dulbecco's modified Eagle medium (Bottenstein et al., Proc. Natl. Acad. Sci. USA 76: 514-517 (1979)) containing 1% fetal calf serum and NGF at […]. The cells were incubated with the additives indicated at 37° C. in a 5% CO2 atmosphere At 18-20 hours, the cells were fixed in 4% formaldehyde in phosphate-buffered saline and scored for neurite growth. The cells on the entire lower horizontal surface of the well were counted using an inverted microscope fitted with phase contrast optics. A neurite was scored if its caliber from origin to terminal was constant and its length was equal to or greater than 1.5 cell body diameters. Neurite growth was corrected for background (no NGF) growth in the presence and absence of peptide.
Such a profile is not typical of a competitive inhibitor. That is, a different dose response profile would be expected if R11 were simply competing with NGF for binding to a receptor. Neither of the less constrained synthetic Intermediates of R11, i.e., R11 (linear) or R11 (monocyclic), was as effective in blocking NGF-dependent neurite growth concentrations up to 200 μM.

The target of another data set is T2, NGF (Mus musculus, UniProt P01139).
T2 construct: homodimer
Briefly: Cross-linking of NGF protomers in a cell-free system (Example 6). It is filed as biochemical.

pIC50: −log10 of the molar value. “Also recorded” adds a separate entry of the source. Bridges are numbered along the chain shown (N, C = ends).

A word on the pIC50: it is −log10 of the IC50, conventionally taken in molar units.

T2 sequence (P01139 122-239): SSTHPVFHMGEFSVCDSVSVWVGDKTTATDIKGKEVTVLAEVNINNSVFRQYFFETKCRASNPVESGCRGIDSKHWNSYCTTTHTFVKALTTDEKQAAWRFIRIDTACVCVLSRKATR
T1 sequence (P01139 122-239): as above

With `[Zn+2]` [Zn^2+], the “Percentage of NGF migrating as a dimer in non-reducing gel electrophoresis” value in the data set on NGF dimer is reported as “No change”. In the data set on TrkA, the “steady-state specific binding of 125I-NGF (0.5 nM) to TrkA” value was found to be 19 ± 15 % Control. Besides, the “Toxicity (PC12 cell viability)” value in the data set with PC12 cells (100 μM) came to 97 ± 11 % control. Further, the “Toxicity to PC12 cells” value in the data set on PC12 cells (in presence of serum, up to 100 μM) is given as “no loss in cell viability; also recorded: not toxic”.

Take “NH2 -Cys-Gly-Ser-Glu-Val-Pro-Asn-Ser-Ala-Arg-Cys-Cys-Val-Cys-OH (H-CGSEVPNSARCCVC-OH; disulfide 1-14, 11-12) [R11, bicyclic peptide of NGF residues 68-58/108-110, two disulfide bonds]”: the “Inhibition of seizure and mossy fiber sprouting” value in data set [1] is “inhibit both seizure and mossy fiber sprouting”. The “Antagonism of NT-3 in vitro” value in the data set with NT-3 is “effective antagonist”. The “Block of NGF-mediated neurite growth” value was 70% in data set [2] (100 μM) and “virtually all” in data set [2] (concentration similar to 200 μM). Moreover, the pIC50 in data set [2] (ED8 chick DRG neurons, FIG. 6, read-out: IC50, inhibition of NGF-dependent neurite growth) is 5.00. Besides, the “NGF protomer cross-linking to BSA” value with NGF (100 μM R11) is given as “increased dramatically”. Besides, in the data set with NGF (100 μM R11, cell-free), the “Cross-linking of NGF promoters by BS3” value is “reduced almost to the point of elimination; also recorded: loss of NGF dimer”.

(Values after patent publication US6291247A, “Methods of screening for factors that disrupt neurotrophin conformation and reduce neurotrophin biological activity” (priority 1996, dated 2001).)
